assay: log P by HPLC-MS; type: physicochemical

| chromatographic logP | SMILES |
| --- | --- |
| 2.53 | Fc1ccc(Cl)nc1I [Example 1, 6-chloro-3-fluoro-2-iodopyridine] |
| 1.85 | COC(=O)c1ccc(F)c(I)n1 [Example 2, methyl 5-fluoro-6-iodopyridine-2-carboxylate] |
| 2.67 | Fc1ccc(Br)nc1I [Example 3, 6-bromo-3-fluoro-2-iodopyridine] |

— patent publication US10766909B2, “Process for preparing halogenated pyridine derivatives” (Bayer CropScience Aktiengesellschaft, priority 2016, dated 2020)
